Values of other authors as cited in US9950967B2, “Titanium-containing formulation and method of preparation of titanium-containing formulation” (INTERMAG Sp. z.o.o., priority 2013, dated 2018).

Tested on: plants
Conditions: I. Pais, J. Plant Nutr. 6:3-133, 1983

In the case of titanium, the increases the yield is given as 10-20%.
